Source: PMC4579270, “Identification and Characterization of an Irreversible Inhibitor of CDK2” (Chemistry & Biology, 2015)

Assays:
BRSK2 = BRSK2 (Homo sapiens, UniProt Q8IWQ3); test: Dundee protein kinase screen; format: biochemical; settings: BRSK2, 1µM; read-out: %Remaining activity at 1µM NU6300
Experimental: (§1) Prior to determining its cellular activity, we carried out a screen to assess its selectivity against a panel of 131 protein kinases under conditions that would not distinguish between a reversible or irreversible mode of action. […] These 13 kinases and 29 additional kinases, selected for their known sensitivity to other inhibitors within the purine series, were then tested in a modified screening format in which the assay was repeated following a 4-hr pre-incubation (Table S3B). […] However, conformational flexibility around the active site may promote such an interaction with a residue from another part of the structure ([Martin et al., 2012]).
(§2) Table S3, Related to Figure 4. NCL-0006300 protein kinase selectivity. (A) NU6300 was tested at a single concentration of 1µM against 131 protein kinases present in a Dundee protein kinase screen (Bain et al., 2007). Values given are % activity remaining and are the average of duplicate measurements: 0-25% (red), 26-50% (yellow), 51-80% (black) and above 81% (green). The kinase domain sequences (as defined by UniProt) of […]
(§3) have a lysine residue at a position close to CDK2 Lys88 or Lys89. However, in the structure of tyrosine-protein kinase BTK (PDB ID: 3GEN) the residue equivalent to CDK2 Asp86 is Cys481 and therefore there is the potential for a covalent adduct to be formed through this side chain. […]

Aurora B = Aurora B (Homo sapiens, UniProt Q96GD4); test: Dundee protein kinase screen; format: biochemical; settings: read-out: %Remaining activity at 1µM NU6300
Chain of Aurora B (Q96GD4 whole entry): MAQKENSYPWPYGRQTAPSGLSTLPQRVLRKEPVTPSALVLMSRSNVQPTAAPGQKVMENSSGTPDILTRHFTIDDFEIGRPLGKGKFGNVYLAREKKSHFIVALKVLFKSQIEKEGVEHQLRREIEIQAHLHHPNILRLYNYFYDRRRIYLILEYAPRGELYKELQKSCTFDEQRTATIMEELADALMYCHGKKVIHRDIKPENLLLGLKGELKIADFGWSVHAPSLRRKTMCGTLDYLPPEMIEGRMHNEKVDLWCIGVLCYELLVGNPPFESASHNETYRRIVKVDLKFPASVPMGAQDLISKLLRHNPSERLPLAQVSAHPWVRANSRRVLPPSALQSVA
Experimental: as §1, §2, §3

AMPK (hum) = test: Dundee kinase screen re-test (standard format and 4 hour pre-incubation); format: biochemical, human
Experimental: as §1
Table S3, Related to Figure 4. NCL-0006300 protein kinase selectivity. […]
Dundee protein kinase screen (Bain et al., 2007). […]
(B) Selected kinases were re-tested in the Dundee kinase screen against NU6300 at a single concentration of 0.5 µM both in the standard assay format and following a 4 hour pre-incubation in the presence of NU6300. Kinases which have very low activity after the 4 hour incubation so that results might not be wholly reliable are boxed in salmon. Kinases where the activity after a 4 hour pre-incubation is < 50% that in the standard assay format are highlighted in red.

TTBK1 = TTBK1 (Homo sapiens, UniProt Q5TCY1); test: Dundee protein kinase screen; format: biochemical; settings: TTBK1, 1µM; read-out: %Remaining activity at 1µM NU6300
Procedure, shortened: (§4)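 Selectivity panel of 131 protein kinases, inhibitor tested at a single concentration of 1 µM; values are % kinase activity remaining, mean of duplicates. Re-test of selected kinases used 0.5 µM in the standard format and again after a 4 hour pre-incubation with the inhibitor.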

EPH-B1 = EPH-B1 (Homo sapiens, UniProt P54762); test: Dundee protein kinase screen; format: biochemical; settings: EPH-B1, 1µM; read-out: %Remaining activity at 1µM NU6300
Chain of EPH-B1 (P54762 18-984): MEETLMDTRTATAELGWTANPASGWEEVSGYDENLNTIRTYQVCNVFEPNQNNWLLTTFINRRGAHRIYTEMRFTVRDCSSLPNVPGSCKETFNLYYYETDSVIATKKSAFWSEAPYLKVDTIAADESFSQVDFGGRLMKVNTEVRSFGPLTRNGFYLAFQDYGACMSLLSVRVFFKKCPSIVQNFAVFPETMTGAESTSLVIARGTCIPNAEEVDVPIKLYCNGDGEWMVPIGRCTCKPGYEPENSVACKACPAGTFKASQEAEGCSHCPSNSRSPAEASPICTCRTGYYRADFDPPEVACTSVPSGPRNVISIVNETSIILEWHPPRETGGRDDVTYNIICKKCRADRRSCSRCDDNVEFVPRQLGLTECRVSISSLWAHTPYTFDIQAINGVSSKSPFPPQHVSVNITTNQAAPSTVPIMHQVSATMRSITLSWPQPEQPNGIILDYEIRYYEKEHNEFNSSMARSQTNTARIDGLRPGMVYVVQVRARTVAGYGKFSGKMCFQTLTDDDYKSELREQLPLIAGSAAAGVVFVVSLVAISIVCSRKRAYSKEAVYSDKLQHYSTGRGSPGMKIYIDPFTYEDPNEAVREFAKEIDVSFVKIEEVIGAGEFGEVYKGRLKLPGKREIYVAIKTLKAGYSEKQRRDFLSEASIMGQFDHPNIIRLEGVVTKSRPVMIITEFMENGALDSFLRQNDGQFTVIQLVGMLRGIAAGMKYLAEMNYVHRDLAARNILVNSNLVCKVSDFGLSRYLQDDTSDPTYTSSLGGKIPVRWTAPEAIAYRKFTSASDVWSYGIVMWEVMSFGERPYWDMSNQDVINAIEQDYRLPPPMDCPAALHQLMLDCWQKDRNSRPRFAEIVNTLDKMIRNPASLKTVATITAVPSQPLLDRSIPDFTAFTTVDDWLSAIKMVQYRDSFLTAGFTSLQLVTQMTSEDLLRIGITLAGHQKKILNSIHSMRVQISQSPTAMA
Procedure, shortened: as §4

MKK6 = MKK6 (Homo sapiens, UniProt P52564); test: Dundee protein kinase screen; format: biochemical; settings: MKK6, 1µM; read-out: %Remaining activity at 1µM NU6300
Procedure, shortened: as §4

HIPK2 = HIPK2 (Homo sapiens, UniProt Q9H2X6); test: Dundee protein kinase screen; format: biochemical; settings: HIPK2, 1µM; read-out: %Remaining activity at 1µM NU6300
Procedure, shortened: as §4

NEK6 = NEK6 (Homo sapiens, UniProt Q9HC98); test: Dundee protein kinase screen; format: biochemical; settings: NEK6, 1µM; read-out: %Remaining activity at 1µM NU6300
Chain of NEK6 (Q9HC98 whole entry): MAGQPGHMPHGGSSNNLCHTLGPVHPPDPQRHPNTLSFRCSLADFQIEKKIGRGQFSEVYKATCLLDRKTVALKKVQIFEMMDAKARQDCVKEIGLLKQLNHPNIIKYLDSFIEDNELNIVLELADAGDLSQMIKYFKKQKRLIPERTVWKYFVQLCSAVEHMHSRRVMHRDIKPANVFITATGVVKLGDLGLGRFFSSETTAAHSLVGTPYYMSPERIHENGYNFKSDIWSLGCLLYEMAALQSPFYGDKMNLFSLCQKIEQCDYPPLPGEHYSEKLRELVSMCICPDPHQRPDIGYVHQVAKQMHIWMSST
Procedure, shortened: as §4

EPH-B2 = EPH-B2 (Homo sapiens, UniProt P29323); test: Dundee protein kinase screen; format: biochemical; settings: EPH-B2, 1µM; read-out: %Remaining activity at 1µM NU6300
Chain of EPH-B2 (P29323 19-1055): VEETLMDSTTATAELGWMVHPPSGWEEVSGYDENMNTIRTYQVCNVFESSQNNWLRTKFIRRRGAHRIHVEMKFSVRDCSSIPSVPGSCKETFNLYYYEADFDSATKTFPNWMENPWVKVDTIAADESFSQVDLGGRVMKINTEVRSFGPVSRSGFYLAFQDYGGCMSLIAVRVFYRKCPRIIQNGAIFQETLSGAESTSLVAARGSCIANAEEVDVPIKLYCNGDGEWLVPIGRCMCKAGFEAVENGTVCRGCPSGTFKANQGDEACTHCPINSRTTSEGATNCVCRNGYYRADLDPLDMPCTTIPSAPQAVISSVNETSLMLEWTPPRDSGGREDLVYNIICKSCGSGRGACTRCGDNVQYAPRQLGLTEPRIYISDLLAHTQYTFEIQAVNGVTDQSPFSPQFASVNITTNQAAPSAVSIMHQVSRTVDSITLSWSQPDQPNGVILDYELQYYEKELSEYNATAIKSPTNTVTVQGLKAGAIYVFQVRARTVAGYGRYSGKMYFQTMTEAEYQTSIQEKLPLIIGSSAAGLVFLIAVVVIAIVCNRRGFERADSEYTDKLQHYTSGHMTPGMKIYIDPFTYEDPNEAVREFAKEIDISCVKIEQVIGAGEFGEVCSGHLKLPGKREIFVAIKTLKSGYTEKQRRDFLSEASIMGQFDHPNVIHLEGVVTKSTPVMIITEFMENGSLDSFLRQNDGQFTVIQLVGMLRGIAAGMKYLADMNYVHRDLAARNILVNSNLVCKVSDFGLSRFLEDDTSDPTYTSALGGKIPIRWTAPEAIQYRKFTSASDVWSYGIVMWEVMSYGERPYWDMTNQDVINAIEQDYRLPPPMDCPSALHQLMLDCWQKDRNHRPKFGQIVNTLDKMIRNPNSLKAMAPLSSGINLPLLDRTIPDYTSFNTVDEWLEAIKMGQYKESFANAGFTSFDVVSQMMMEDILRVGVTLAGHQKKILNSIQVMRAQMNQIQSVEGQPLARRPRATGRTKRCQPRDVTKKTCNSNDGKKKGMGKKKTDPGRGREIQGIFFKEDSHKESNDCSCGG
Procedure, shortened: as §4

CAMKKβ = CAMKKβ (Homo sapiens, UniProt Q96RR4); test: Dundee protein kinase screen; format: biochemical; settings: read-out: %Remaining activity at 1µM NU6300
Chain of CAMKKβ (Q96RR4 whole entry): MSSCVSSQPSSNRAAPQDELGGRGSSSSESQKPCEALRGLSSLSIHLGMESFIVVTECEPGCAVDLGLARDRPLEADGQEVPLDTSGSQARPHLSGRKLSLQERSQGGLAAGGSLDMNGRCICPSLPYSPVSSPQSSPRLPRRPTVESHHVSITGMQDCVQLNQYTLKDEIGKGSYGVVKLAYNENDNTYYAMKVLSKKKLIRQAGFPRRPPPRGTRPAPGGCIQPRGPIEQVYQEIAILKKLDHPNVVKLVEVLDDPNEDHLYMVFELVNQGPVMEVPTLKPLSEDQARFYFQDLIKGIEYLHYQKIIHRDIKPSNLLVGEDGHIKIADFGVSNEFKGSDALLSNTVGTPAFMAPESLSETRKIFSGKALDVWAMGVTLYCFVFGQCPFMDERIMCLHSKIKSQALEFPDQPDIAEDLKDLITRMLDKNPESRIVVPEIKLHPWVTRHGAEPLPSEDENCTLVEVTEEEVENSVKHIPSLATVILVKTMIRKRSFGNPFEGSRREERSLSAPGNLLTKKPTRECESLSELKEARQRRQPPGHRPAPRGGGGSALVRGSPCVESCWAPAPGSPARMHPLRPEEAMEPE
Procedure, shortened: as §4

MARK3 = MARK3 (Homo sapiens, UniProt P27448); test: Dundee protein kinase screen; format: biochemical; settings: MARK3, 1µM; read-out: %Remaining activity at 1µM NU6300
Procedure, shortened: as §4

MEKK1 = MEKK1 (Homo sapiens, UniProt Q13233); test: Dundee protein kinase screen; format: biochemical; settings: MEKK1, 1µM; read-out: %Remaining activity at 1µM NU6300
Chain of MEKK1 (Q13233 whole entry): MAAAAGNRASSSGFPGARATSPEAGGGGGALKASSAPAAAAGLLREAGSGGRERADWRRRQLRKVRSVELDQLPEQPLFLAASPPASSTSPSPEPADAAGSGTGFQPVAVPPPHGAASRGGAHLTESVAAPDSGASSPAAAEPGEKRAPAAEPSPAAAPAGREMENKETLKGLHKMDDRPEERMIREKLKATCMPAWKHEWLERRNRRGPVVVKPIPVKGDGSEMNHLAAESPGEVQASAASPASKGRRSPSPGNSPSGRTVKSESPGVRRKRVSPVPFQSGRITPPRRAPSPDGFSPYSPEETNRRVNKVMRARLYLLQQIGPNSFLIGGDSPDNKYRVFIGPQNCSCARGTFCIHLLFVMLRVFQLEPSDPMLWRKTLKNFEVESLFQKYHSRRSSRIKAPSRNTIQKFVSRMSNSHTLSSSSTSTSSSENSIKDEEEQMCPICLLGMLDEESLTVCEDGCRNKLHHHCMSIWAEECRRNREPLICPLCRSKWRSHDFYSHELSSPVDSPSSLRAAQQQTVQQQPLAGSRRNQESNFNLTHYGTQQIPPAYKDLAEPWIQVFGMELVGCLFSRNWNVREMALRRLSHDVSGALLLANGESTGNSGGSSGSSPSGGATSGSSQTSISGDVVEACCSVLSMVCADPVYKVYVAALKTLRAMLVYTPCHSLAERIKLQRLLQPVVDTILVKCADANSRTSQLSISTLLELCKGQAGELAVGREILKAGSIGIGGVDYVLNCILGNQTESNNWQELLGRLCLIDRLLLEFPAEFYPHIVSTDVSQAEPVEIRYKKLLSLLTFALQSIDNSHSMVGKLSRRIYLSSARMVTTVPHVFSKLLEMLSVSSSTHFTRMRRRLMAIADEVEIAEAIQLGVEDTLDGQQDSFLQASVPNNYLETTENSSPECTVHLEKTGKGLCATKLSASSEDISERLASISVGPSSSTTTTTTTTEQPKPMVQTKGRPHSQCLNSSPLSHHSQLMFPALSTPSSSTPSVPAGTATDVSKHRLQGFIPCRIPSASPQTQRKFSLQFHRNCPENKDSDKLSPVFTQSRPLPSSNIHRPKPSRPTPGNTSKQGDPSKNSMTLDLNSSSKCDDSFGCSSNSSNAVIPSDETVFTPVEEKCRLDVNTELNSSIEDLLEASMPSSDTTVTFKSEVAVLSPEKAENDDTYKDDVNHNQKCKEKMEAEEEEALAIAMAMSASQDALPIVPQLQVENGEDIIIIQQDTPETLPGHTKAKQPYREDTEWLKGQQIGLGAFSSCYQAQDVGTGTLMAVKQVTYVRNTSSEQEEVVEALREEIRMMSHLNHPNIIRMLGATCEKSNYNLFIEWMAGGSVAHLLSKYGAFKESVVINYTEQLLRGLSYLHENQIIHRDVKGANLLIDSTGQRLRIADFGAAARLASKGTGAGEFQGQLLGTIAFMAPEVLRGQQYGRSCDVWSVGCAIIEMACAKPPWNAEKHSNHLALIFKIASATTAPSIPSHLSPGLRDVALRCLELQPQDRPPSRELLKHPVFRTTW
Procedure, shortened: as §4

TIE2 = TIE2 (Homo sapiens, UniProt Q02763); test: Dundee protein kinase screen; format: biochemical; settings: TIE2, 1µM; read-out: %Remaining activity at 1µM NU6300
Procedure, shortened: as §4

MST2 = biological target: T1, MST2 (Homo sapiens, UniProt Q13188); test: Dundee protein kinase screen; format: biochemical; settings: MST2, 1µM; read-out: %Remaining activity at 1µM NU6300
T1 sequence (Q13188 1-491): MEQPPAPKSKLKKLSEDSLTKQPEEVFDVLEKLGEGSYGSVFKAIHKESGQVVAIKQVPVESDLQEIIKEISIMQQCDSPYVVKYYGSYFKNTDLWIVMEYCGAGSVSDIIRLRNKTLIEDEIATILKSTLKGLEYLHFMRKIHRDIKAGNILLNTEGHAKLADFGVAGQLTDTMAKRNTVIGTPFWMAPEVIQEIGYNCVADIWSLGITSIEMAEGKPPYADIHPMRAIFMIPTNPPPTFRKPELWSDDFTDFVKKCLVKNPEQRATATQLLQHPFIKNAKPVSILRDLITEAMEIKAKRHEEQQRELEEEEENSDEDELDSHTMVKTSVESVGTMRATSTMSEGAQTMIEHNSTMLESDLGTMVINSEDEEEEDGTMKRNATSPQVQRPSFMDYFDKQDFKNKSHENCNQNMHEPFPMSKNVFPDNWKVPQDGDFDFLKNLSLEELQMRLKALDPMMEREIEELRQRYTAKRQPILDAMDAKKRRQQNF
Procedure, shortened: as §4

BRSK1 = BRSK1 (Homo sapiens, UniProt Q8TDC3); test: Dundee protein kinase screen; format: biochemical; settings: BRSK1, 1µM; read-out: %Remaining activity at 1µM NU6300
Procedure, shortened: as §4

With `C=CS(=O)(=O)c1ccc(Nc2nc(OCC3CCCCC3)c3nc[nH]c3n2)cc1` [NU6300, 6-(cyclohexylmethoxy)-N-(4-(vinylsulfonyl)phenyl)-9H-purin-2-amine] the remaining activity at 1 µM (BRSK2) was 60%, the remaining activity at 1 µM (Aurora B) was 26% and the “%Remaining activity at 0.5µM NU6300 - 4hr RT preincubation” value (AMPK (hum); 4hr RT preincubation) was 73%. The “%Remaining activity at 0.5µM NU6300 - Usual assay format” value (AMPK (hum); usual format) was 70%, the remaining activity at 1 µM (TTBK1) was 83% and the remaining activity at 1 µM (EPH-B1) was 78%. It also gave a remaining activity at 1 µM (MKK6) of 85%, a remaining activity at 1 µM (HIPK2) of 61% and a remaining activity at 1 µM (NEK6) of 70%. The remaining activity at 1 µM (EPH-B2) was 96%, the remaining activity at 1 µM (CAMKKβ) was 73% and the remaining activity at 1 µM (MARK3) was 71%. For the same compound, the remaining activity at 1 µM (MEKK1) was 89%, the remaining activity at 1 µM (TIE2) was 122% and the remaining activity at 1 µM (MST2) was 41%. For the same compound, the remaining activity at 1 µM (BRSK1) was 79%.
